From patent publication US20070207992A1, “Geldanamycin derivatives and method of use thereof” (Board of Trustees of Michigan State University, priority 2006, published 2007)
Structures can show the parent of a compound that is named as a salt. Where two headings read alike, the source gives them in different places.

How the values were obtained:
[1] = system: P. falciparum W2; test: Testing of compounds against P. falciparum strain W2; assay type: cell-based; conditions: Plasmodium falciparum
Excerpt: (§1) Parasitic Lethality: The geldanamycin derivatives were subjected to further testing for lethality to the P. falciparum parasite itself. IC50 values were then obtained as illustrated in Table 1 in Example 3. Samples of the literature compound 17-N-allyl-17-demethoxygeldanamycin was synthesized and tested for killing of parasites. Preferably the drugs are selective for parasitic hsp90 homologs over human hsp90 and have minimal human toxicity. Geldanamycin derivatives of this type have potential for being novel drugs in the treatment of parasitic diseases. The medical community will be able to use these new anti-infective medications alone or in combination with other anti-infective medications. For example, the geldanamycin derivatives of the present invention can be used in combination with chloroquine, since geldanamycin and chloroquine are synergistic inhibitors of Plasmodium falciparum growth as described in Kumar et al. Malaria Journal 2:30 (2003).
(§2) Both parasite strains are chloroquine and pyrimethamine resistant and TM91C235 is also mefloquine resistant.

[2] = system: P. falciparum TM91C235; test: Testing of compounds against P. falciparum strain TM91C235; assay type: cell-based; conditions: Plasmodium falciparum
Excerpt: as §1, §2

[3] = target strain W2 (chloroquine and pyrimethamine resistant), read-out: IC50
[4] = target strain W2 (chloroquine and pyrimethamine resistant), read-out: IC90
[5] = target strain TM91C235 (chloroquine, pyrimethamine and mefloquine resistant), read-out: IC50
[6] = target strain TM91C235 (chloroquine, pyrimethamine and mefloquine resistant), read-out: IC90

| Compound | IC50 ([1]; W2) | IC90 ([1]; W2) | IC50 [2] | IC90 [2] | IC50 [1, 3] | IC90 [1, 4] | IC50 [2, 5] | IC90 [2, 6] |
| --- | --- | --- | --- | --- | --- | --- | --- | --- |
| CCN(CC)CCCC(C)Nc1ccnc2cc(Cl)ccc12 (stereo not drawn) [Chloroquine, reference compound] | 0.0297 µg/mL | 0.0378 µg/mL | 0.125 µg/mL | 0.16 µg/mL |  |  |  |  |
| CO[C@H]1/C=C\C=C(/C)C(=O)NC2=CC(=O)C(N3CCC3)=C(C[C@@H](C)C[C@H](OC)[C@H](OC(=O)CCCN)[C@@H](C)/C=C(\C)[C@@H]1OC(N)=O)C2=O [Compound A, 11-O-(4-Aminobutyryl)-17-(1-azetidinyl)-17-demethoxygeldanamycin trifluoroacetate] |  |  |  |  | 0.65 µg/mL | 1.79 µg/mL | 1.03 µg/mL | 2.53 µg/mL |
| CCCC(=O)O[C@H]1/C(C)=C/[C@H](C)[C@@H](O)[C@@H](OC)C[C@H](C)CC2=C(N3CCC3)C(=O)C=C(NC(=O)/C(C)=C/C=C\[C@@H]1OC)C2=O [Compound B, 17-(1-Azetidinyl)-7-butyryl-7-decarbamyl-17-demethoxygeldanamycin] |  |  |  |  | 0.786 µg/mL | 2.73 µg/mL | 2.71 µg/mL | 4.02 µg/mL |
| CO[C@H]1/C=C\C=C(/C)C(=O)NC2=CC(=O)C(N3CCC3)=C(C[C@@H](C)C[C@H](OC)[C@H](O)[C@@H](C)/C=C(\C)[C@@H]1OC(=O)C1CC1)C2=O [Compound C, 17-(1-Azetidinyl)-7-(cyclopropanyl)carbonyl-7-decarbamyl-17-demethoxygeldanamycin] |  |  |  |  | 0.875 µg/mL | 3.06 µg/mL | 2.64 µg/mL | 3.95 µg/mL |
| CO[C@H]1/C=C\C=C(/C)C(=O)NC2=CC(=O)C(N3CCC3)=C(C[C@@H](C)C[C@H](OC)[C@H](O)[C@@H](C)/C=C(\C)[C@@H]1O)C2=O [Compound D, 17-(1-Azetidinyl)-7-decarbamyl-17-demethoxygeldanamycin] |  |  |  |  | 0.958 µg/mL | 6.18 µg/mL | 4.04 µg/mL | 8.41 µg/mL |
| CO[C@H]1/C=C\C=C(/C)C(=O)NC2=CC(=O)C(N3CCC3)=C(C[C@@H](C)C[C@H](OC)[C@H](O)[C@@H](C)/C=C(\C)[C@@H]1OC(=O)c1ccccc1)C2=O [Compound E, 17-(1-Azetidinyl)-7-benzoyl-7-decarbamyl-17-demethoxygeldanamycin] | 1.26 µg/mL | 5.43 µg/mL | 4.29 µg/mL | 6.07 µg/mL |  |  |  |  |
| CCC(=O)O[C@H]1/C(C)=C/[C@H](C)[C@@H](O)[C@@H](OC)C[C@H](C)CC2=C(N3CCC3)C(=O)C=C(NC(=O)/C(C)=C/C=C\[C@@H]1OC)C2=O [Compound F, 17-(1-Azetidinyl)-7-decarbamyl-17-demethoxy-7-propionylgeldanamycin] |  |  |  |  | 0.909 µg/mL | 3.74 µg/mL | 3.03 µg/mL | 5.54 µg/mL |
| CO[C@H]1/C=C\C=C(/C)C(=O)NC2=CC(=O)C(N3CCC3)=C(C[C@@H](C)C[C@H](OC)[C@H](O)[C@@H](C)/C=C(\C)[C@@H]1OC(N)=O)C2=O [Compound G, 17-(1-Azetidinyl)-17-demethoxygeldanamycin] |  |  |  |  | 0.0683 µg/mL | 0.208 µg/mL | 0.169 µg/mL | 0.346 µg/mL |
| OC(c1cc(C(F)(F)F)nc2c(C(F)(F)F)cccc12)C1CCCCN1 (stereo not drawn) [Mefloquine, reference compound] |  |  |  |  | 0.00163 µg/mL | 0.00409 µg/mL | 0.0138 µg/mL | 0.0291 µg/mL |
